One experiment has as its system Rattus norvegicus. The experiment is described as follows: Antiinflammatory activity in po dosed rat assessed as inhibition of carrageenan-induced foot edema compound administered 1 hr before carrageenan challenge measured after 3 to 3.5 hrs relative to untreated control. The experiment is classed as functional. Background: In the carrageenan paw model, swelling and tenderness develop within hours.
On to `COc1ccc(-c2cnc(N)nc2-c2ccc(OC)cc2)cc1`, for which the 50% effective dose (ED50) stood at 85 mg/kg. Still for that read-out and setting: the same measure for `Nc1nccc(-c2ccncc2)n1` [listing 1 of 2 here]: 38 mg/kg; for `Cc1nccc(-c2ccncc2)n1`: 47 mg/kg.

In the case of `CNc1nccc(-c2ccncc2)n1`, the ED50 is 49 mg/kg. Regarding `c1ccc(-c2cncnc2-c2ccncc2)cc1`, the ED50 is 95 mg/kg.

Regarding `Cc1cnc(N)nc1-c1ccncc1`, the ED50 is 66 mg/kg. The same measure, in the same setting: under `CC(C)(C)C1CCc2ncncc2C1` (stereo unspecified) stands 58 mg/kg; under `CN(C)CC(=O)Nc1ncc(-c2ccccc2)c(C(C)(C)C)n1`, 84 mg/kg. With `CC(C)(C)c1ccnc(O)n1`, the 50% effective dose (ED50) is 43 mg/kg.

`Cc1c(-c2ccccc2)nnc[n+]1[O-]`: the 50% effective dose (ED50) stood at 64 mg/kg. Consider `CC(C)(C)c1c[n+]([O-])cnn1`, for which the ED50 came to 98 mg/kg. On the same count and under the same terms, under `CCCCC1C(=O)N(c2ccccc2)N(c2ccccc2)C1=O` [PHENYLBUTAZONE] stands 25 mg/kg; under `Cc1ccc2c(-c3ccccc3)nc(=O)n(C(C)C)c2c1` [PROQUAZONE], 5.2 mg/kg.

The test system of a further experiment is Rattus norvegicus. The experiment in a line: Antiinflammatory activity in rat assessed as inhibition of carrageenan-induced foot edema at 100 mg/kg, po administered 1 hr before carrageenan challenge measured after 3 to 3.5 hrs relative to untreated control. The experiment is classed as functional.
Consider `Nc1nccc(-c2cccnc2)n1`, for which the inhibition in vivo at 100 mg/kg came to 32%. On the same count and under the same terms, the same measure for `CN(C)c1nccc(C(C)(C)C)n1`: 18%; for `Nc1ncc2c(n1)-c1ccccc1CC2`: 32%; for `Cc1cnc(N)nc1-c1ccccc1`: 34%. As to `Cc1ncc(C)c(-c2ccccc2)n1`, the inhibition in vivo at 100 mg/kg is 12%. Consider `Cc1cncnc1-c1ccccc1`, for which the inhibition in vivo at 100 mg/kg was determined as 48%.

Take `c1cc(-c2ccncn2)ccn1`: the inhibition in vivo at 100 mg/kg was 45%. `Nc1nccc(-c2ccccn2)n1`: the inhibition in vivo at 100 mg/kg was determined as 17%. The same measure, in the same setting: the same measure for `N#CNc1nccc(-c2ccncc2)n1`: less than 5%.

For the molecule `CC(=O)Nc1nccc(-c2ccncc2)n1`, the inhibition in vivo at 100 mg/kg is 52%.

Regarding `CCOC(=O)Nc1nccc(-c2ccncc2)n1`, the inhibition in vivo at 100 mg/kg is 31%.

Regarding `Nc1nccc(-c2ccncc2)n1` [listing 2 of 2 here], the inhibition in vivo at 100 mg/kg came to 18%. Still for that read-out and setting: under `NC(=O)Nc1nccc(-c2ccncc2)n1` stands 12%; under `Nc1ncc(-c2ccccc2)c(-c2ccncc2)n1`, 48%; under `Cc1cncnc1-c1ccncc1`, 50%. As to `CC(C)(C)C1CCc2nc(N)ncc2C1` (stereo unspecified), the inhibition in vivo at 100 mg/kg was 41%.

For `Cc1ncc2c(n1)CCC(C(C)(C)C)C2` (stereo unspecified), the inhibition in vivo at 100 mg/kg was less than 5%.

Regarding `Cc1ncc2c(n1)CCN(C)C2`, the inhibition in vivo at 100 mg/kg turned out to be 45%.

In the case of `CN1CCc2nc(N)ncc2C1`, the inhibition in vivo at 100 mg/kg is less than 5%. On the same count and under the same terms, under `CN1CCc2ncncc2C1` stands 50%; under `Cc1ncc2c(n1)-c1ccccc1CC2`, less than 5%. For `c1ccc2c(c1)CCc1cncnc1-2`, the inhibition in vivo at 100 mg/kg was found to be 32%. Take `Cc1ncc2c(n1)-c1ccccc1CCC2`: the inhibition in vivo at 100 mg/kg is less than 5%. Still for that read-out and setting: the same measure for `Cc1ncc2c(n1)-c1ccccc1C2`: less than 5%; for `COc1ccc(-c2cnc(C)nc2-c2ccc(OC)cc2)cc1`: less than 5%. The same measure, in the same setting: the same measure for `CC(C)(C)c1nc(N)ncc1-c1ccccc1`: 46%; for `Cc1ncc(-c2ccccc2)c(C(C)(C)C)n1`: 22%; for `CC(C)(C)c1ncncc1-c1ccccc1`: 48%. In the case of `CC(C)(C)c1nc(-c2ccccc2)ncc1-c1ccccc1`, the inhibition in vivo at 100 mg/kg was less than 5%. Same read-out and setting: the same measure for `CC(C)(C)c1nc(NC#N)ncc1-c1ccccc1`: less than 5%; for `CC(=O)N(C(C)=O)c1ncc(-c2ccccc2)c(C(C)(C)C)n1`: 22%. Still for that read-out and setting: the same measure for `CCOC(=O)Nc1ncc(-c2ccccc2)c(C(C)(C)C)n1`: 24%; for `CC(C)(C)c1nc(NC(N)=O)ncc1-c1ccccc1`: 14%. On the same count and under the same terms, under `CC(=O)Nc1ncc(-c2ccccc2)c(C(C)(C)C)n1` stands 29%; under `CNc1ncc(-c2ccccc2)c(C(C)(C)C)n1`, 37%. Turning to `CC(C)(C)c1nc(NN)ncc1-c1ccccc1`, the inhibition in vivo at 100 mg/kg was less than 5%. Still for that read-out and setting: under `CC(C)(C)c1nc(N)ncc1-c1ccc(Cl)cc1` stands 25%; under `CC(C)(C)c1nc(N)ncc1-c1cccc(C(F)(F)F)c1`, 8%.

Take `CC(C)(C)c1nc(NC(=O)CCCC(=O)O)ncc1-c1ccccc1`: the inhibition in vivo at 100 mg/kg is 5%. The same measure, in the same setting: the same measure for `CC(C)(C)c1ccnc(N)n1`: 32%; for `CC(C)(C)c1ccnc(Nc2ccccc2)n1`: 21%. In the case of `CC(C)(C)c1ccnc(Cl)n1`, the inhibition in vivo at 100 mg/kg was less than 5%. `CC(C)(C)c1ccnc(NCc2ccccc2)n1`: the inhibition in vivo at 100 mg/kg is 14%. For `CC(C)(C)c1ccnc(NCCc2ccccc2)n1`, the inhibition in vivo at 100 mg/kg turned out to be 10%. `CC(C)(C)Nc1nccc(C(C)(C)C)n1`: the inhibition in vivo at 100 mg/kg came out at 26%. The same measure, in the same setting: under `CNc1nccc(C(C)(C)C)n1` stands 34%; under `CC(C)(C)c1ccnc(S)n1`, 22%. On to `CSc1nccc(C(C)(C)C)n1`, for which the inhibition in vivo at 100 mg/kg was determined as 35%. Consider `Nc1ncc2c(n1)CCCCCCCCCC2`, for which the inhibition in vivo at 100 mg/kg was less than 5%. As for `c1ncc2c(n1)CCCCCCCCCC2`, the inhibition in vivo at 100 mg/kg was less than 5%. For the molecule `Cc1ncc2c(n1)CCCCCCCCCC2`, the inhibition in vivo at 100 mg/kg is less than 5%. Same read-out and setting: under `Cc1nnc2c([n+]1[O-])CC(C(C)(C)C)CC2` (stereo unspecified) stands 48%; under `CC(C)(C)C1CCc2nnc[n+]([O-])c2C1` (stereo unspecified), 36%; under `CC(C)(C)C1CCc2nnc(-c3ccccc3)[n+]([O-])c2C1` (stereo unspecified), 15%.

In the case of `Cc1nnc2c(n1)CC(C(C)(C)C)CC2` (stereo unspecified), the inhibition in vivo at 100 mg/kg was less than 5%. For the molecule `CC(C)(C)C1CCc2nncnc2C1` (stereo unspecified), the inhibition in vivo at 100 mg/kg amounted to 49%.

Take `Cc1ncnnc1-c1ccccc1`: the inhibition in vivo at 100 mg/kg was less than 5%. Consider `Cc1nc(-c2ccccc2)nnc1-c1ccccc1`, for which the inhibition in vivo at 100 mg/kg is less than 5%. Consider `CC(C)(C)c1c[n+]([O-])c(-c2ccccc2)nn1`, for which the inhibition in vivo at 100 mg/kg is 35%. `Cc1nnc(C(C)(C)C)c[n+]1[O-]`: the inhibition in vivo at 100 mg/kg was determined as 22%. Regarding `CC(C)(C)c1cnc(-c2ccccc2)nn1`, the inhibition in vivo at 100 mg/kg stood at 38%. Same read-out and setting: under `Cc1ncc(C(C)(C)C)nn1` stands 25%; under `c1ccc2c(c1)CCCc1ncnnc1-2`, less than 5%; under `c1ccc2c(c1)ccc1ncnnc12`, less than 5%. In the case of `Cc1nnc2c(ccc3ccccc32)n1`, the inhibition in vivo at 100 mg/kg is less than 5%. As to `CCCCc1nnc2c(ccc3ccccc32)n1`, the inhibition in vivo at 100 mg/kg is less than 5%. Turning to `c1ccc(-c2nnc3c(ccc4ccccc43)n2)cc1`, the inhibition in vivo at 100 mg/kg was less than 5%. Still for that read-out and setting: the same measure for `c1ccc(-c2nccc(-c3ccncc3)n2)cc1`: 42%.

Broadly, the ED50 is the dose that gives a 50% effect, or the effect in half of the subjects. In general, inhibition in vivo refers to the drop in the measured response relative to a control, in per cent.

For the origin of these results see ChEMBL document CHEMBL3244093, “Synthesis and antiinflammatory activity of trisubstituted pyrimidines and triazines” (1978).
